The values below come from US20250017888A1, “COMPOUNDS FOR TREATING DISEASES ASSOCIATED WITH HYALURONAN OVERPRODUCTION” (THE ROYAL VETERINARY COLLEGE, priority 2021, published 2025).

Format in all cases: cell-based
Data set [1] has as its system bovine cartilage slices. Description: Collagen loss from cartilage explants (van Gieson staining). The settings on record: Il-1α, Il-1β and Il-17; 12.5 μM and 50 μM; 14 days. As to the method: Cartilage explants were incubated with and without a mixture of 10 ng/ml of II-1α, 10 ng/ml of II-1β and 25 ng/ml of II-17 for 14 days. The addition of the cytokines was repeated daily. The tissues were fixed with 3.7% paraformaldehyde for 24 hours, imbedded in paraffin and stained by the van Giesson method.
Cartilage explants were incubated with and without a mixture of 10 ng/ml of 11-17 and 5 ng/ml of II-1α for 14 days. The addition of the cytokines was repeated daily. The tissues were fixed with 3.7% paraformaldehyde for 24 hours, imbedded in paraffin and stained by the van Gieson method (van Gieson, 1. (1889) Laboratory notes of technical methods for the nervous system. New York Medical Journal 50, 57-60).
It is known that hyaluronan overproduction leads to collagen degradation from cartilage (Deiters, B. and Prehm, P., Arthritis Res. Ther., 2008, 10, R8; Prehm, P., J. Rheumatol., 2005, 32, 690-696). […] Therefore cartilage explants were incubated with a mixture of the osteoarthritis inducing […] II-1α, II-1β and II-17 with 12.5 μM and 50 μM of the prenylflavonoids for 14 days and collagen was stained by the van Giesson method.

In data set [2] the test system is fibroblasts. Put plainly: Alamar blue staining of fibroblasts. The settings on record: Fibroblast. As to the method:
(§1) The hyaluronan synthase activity (Prehm, P. and Schumacher, U., Biochem. Pharmacol. 2004, 68, 1401-1410), the cytotoxicity of the drugs (O'Brien, J. et al., Eur. J. Biochem. 2000, 267, 5421-5426), proteoglycan synthesis rate, hyaluronan (Prehm, P. J. Rheumatol., 2005, 32, 690-696) and proteoglycan (Bjornsson, S. Anal. Biochem. 1993, 210, 282-291) were determined as described. The effect of the prenylflavonoids on the MRP5 export rate was measured with fluorescein diacetate as described (Schulz, T., Schumacher, U., and Prehm, P., J Biol. Chem., 2007, 282, 20999-21004). The determination of the IC50 values on the phosphodiesterase 5 was performed according to the instructions of BPS Bioscience. The culture of bovine chondrocytes in alginate beads and of explants of bovine cartilage was described previously (Deiters, B. and Prehm, P. Arthritis Res. Ther., 2008, 10, R8; Prehm, P. J. Rheumatol. 2005, 32, 690-696). Osteoarthritic reactions were induced in chondrocytes growing in alginate beads by incubation with medium containing 10 ng/ml of II-17 for 6 days, and in cartilage explants with 10 ng/ml of II-17 and 5 ng/ml of II-1α. The supernatants were withdrawn and stored at −20° C. for later analysis. The explants were weighed and extracted with 1 ml of 4 M guanidinium-HCl for 72 hours at 4° C. The proteoglycan concentrations were determined in the extracts.

In data set [3] the test system is bovine cartilage explants. Description: Proteoglycan loss from interleukin activated bovine cartilage explants. The settings on record: Bos taurus; read-out: IC50 Inhibition of proteoglycan loss. The protocol: Cartilage explants were weighed (average wet weight: 20 mg) incubated in the absence and presence of IL-1 (2 ng/ml) and the inhibitors at various concentrations for 5 days. The tissues were extracted with 1.5 ml of a solution of 4 M guanidinium hydrochloride, 0.1 M ε-aminohexanoid acid, 5 mM benzamidine, 10 mM N-ethylmaleinimide, 0.5 mM phenylmethylsulfonyl fluoride for 3 days at 4° C. The solution was centrifuged for 5 min at 10.000 g and the proteoglycans were determined in the supernatant by the alcian blue method as described (Bjornsson, S., Anal. Biochem., 1993, 210, 282-291).
Bovine cartilage explants were incubated in the absence and presence of interleukin for stimulation of osteoarthritic reactions and the indicated concentrations of the xanthohumol-betaine (FIG. 6A), xanthohumol-prothiazole (FIG. 6B), quercetin-prothiazole (FIG. 6C), quercetin (FIG. 6D) and xanthohumol (FIG. 6E) for 5 days. The cartilage explants were weighed and the proteoglycan concentrations were determined in the cartilage explants (solid bars) and culture supernatants (open bars).

Data set [4] is described as follows: Alamar blue toxicity assay (FIG. 1). The settings on record: below concentrations of 100 μM. The protocol: as §1
The toxicity was determined by the Alamar blue assay.
On the technique in general: Alamar Blue is a resazurin reagent that responds to reducing activity.

Data set [5] concerns hyaluronan export from chondrosarcoma cells. Put plainly: Inhibition of hyaluronan export / production in chondrosarcoma cells. As to the method:
as §1
Chondrosarcoma cells were plated on a 96 well microtiter plate and in the presence of increasing flavonoid concentrations. After 2 days the concentration of hyaluronan was determined in the culture supernatant.

Data set [6] concerns chondrosarcoma cells. Put plainly: Uptake of flavonoids into chondrosarcoma cells by intracellular fluorescence. The protocol:
Confluent monolayers of chondrosarcoma cells on 96 well microtiter plates were incubated with 100 μM solutions of flavonoids in serum-free Quantum medium. Changes in fluorescence were monitored from the bottom of the wells at excitation and emission wavelengths of 340 nm and 450 nm for xanthohumol and at 440 nm and 530 nm for quercetin, respectively.
Flavonoids are weakly fluorescent in aqueous buffer, but greatly enhance the fluorescence in the presence of proteins (Sengupta, B. and Sengupta, P. K., Biochem. Biophys. Res. Commun., 2002, 299, 400-403). This property was used to follow the uptake of quercetin and xanthohumol into chondrosarcoma cells.

The subject of data set [7] is chondrosarcoma cells (SW1353). Put plainly: Alamar blue staining of chondrosarcoma. The settings on record: Homo sapiens. As to the method:
as §1
Chondrosarcoma cells (SW1353 from the American Type Culture Collection) were grown in Dulbecco's medium supplemented with streptomycin/penicillin (100 units of each/ml), 10% foetal calf serum or in serum free Quantum medium supplemented with streptomycin/penicillin (100 units of each/ml), kanamycin (100 units/ml).

By IC50 is commonly meant the point on the concentration scale where inhibition reaches its midpoint.

Consider `COc1cc(O)c(CC=C(C)C)c(O)c1C(=O)/C=C/c1ccc(O)cc1` [Xanthohumol, reference compound], for which, in data set [1], the “protection of cartilage from collagen loss” value is recorded as “effective at protecting the cartilage from collagen loss”. Also, the IC50 in data set [2] is 55 µM; in data set [3], 2.6 µM; in data set [5] it was 19 µM; in data set [7], 76 µM. For the same molecule, the “toxicity in Alamar blue assay” value in data set [4] is “not toxic”. The “uptake into chondrosarcoma cells (intracellular fluorescence)” value in data set [6] is given as “did not accumulate inside the cells”.
